Assay results: patent US11285147B2, “Neuroprotective agents for treatment of neurodegenerative diseases” (WAYNE STATE UNIVERSITY, priority 2018, dated 2022)

Tests used:
[1] = molecular target: T1, Aβ1-42 peptide (Homo sapiens, UniProt P05067); experiment: Inhibition of Aβ1-42 aggregation, ThT fluorescence; type: biochemical; conditions: Aβ1-42 10 μM, test compounds 20 μM, 24 h
T1 construct: disaggregation activity of Aβ1-42 peptide
Protocol: (§1) FIGS. 3A and 3B. Inhibition and dissociation of Aβ1-42 oligomer formation by: a) ThT fluorescence of Aβ1-42 (10 μM) with or without incubation with test compounds (20 μM) for 24 h. The ThT fluorescence of Aβ1-42 at 0 h was taken as 100%. b) Aβ1-42 fibrils (10 μM) were incubated with test compounds (20 μM) for a period of 24 h. The ThT fluorescence of Aβ1-42 aggregates at 0 h was considered as 100%
as §1, with “3B show inhibition” for “3B. Inhibition”
(§2) Similar to the effect of the drugs on α-syn, interaction of compounds with Aβ1-42 peptide clearly indicated a significant effect in inhibiting aggregation in a time dependent manner as indicated by decrease in ThT activity (FIG. 3a). Similarly, test compounds were able to decrease ThT activity of preformed Aβ aggregates in a time dependent manner, reflecting its effect in disrupting structure of aggregates (FIG. 3b). On the other hand, incubation of aggregates itself led to a gradual increase in ThT activity (FIG. 3b).

[2] = molecular target: T2, Aβ1-42 fibrils (Homo sapiens, UniProt P05067); experiment: Dissociation of preformed Aβ1-42 aggregates, ThT fluorescence; type: biochemical; conditions: Aβ1-42 fibrils 10 μM, test compounds 20 μM, 24 h
T2 construct: disaggregation activity of Aβ1-42 peptide
Protocol: as §1
as §1, with “3B show inhibition” for “3B. Inhibition”
as §2

[3] = molecular target: αSN (alpha synuclein) (Homo sapiens, UniProt P37840); experiment: Inhibition of αSN fibrillization, ThT fluorescence assay; type: biochemical
Protocol: FIGS. 2A-B. (A) Inhibition of aSN fibrillization by D-687 and D-688. The drugs were incubated with aSN over a period of six days and the fibrilization was measured by ThT fluorescence assay. Data Values shown are means±SEMs of three independent experiments. (B) PC12 cells were treated with 10 μM prefabricated aSN aggregates formed in presence of drugs collected at day 0 and day 6. Values shown are means±SEMs of three independent experiments performed in 4-6 replicates. One way ANOVA analysis followed by Tukey's Multiple Comparison post hoc test were performed. (*p<0.01 compared to the control).
We assessed the ability of our compounds, D-687 and D-688, to alter aggregation and cytotoxicity after co-incubating αSN with these drugs for 6 days followed by evaluation of ThT fluorescence activity and cell viability experiment with the PC12 cells. […] In order to maintain identical condition, cellular viability was determined by using samples from various experiments diluted to maintain a final concentration of 10 μM of αSN and 20 μM of drugs.
FIG. 2 provides (A) Inhibition of aSN fibrillization by D-687 and D-688. The drugs were incubated with aSN over a period of six days and the fibrilization was measured by ThT fluorescence assay. Data Values shown are means±SEMs of three independent experiments. […]

[4] = molecular target: D2L receptor (Rattus norvegicus, UniProt P61169); experiment: biochemical
[5] = molecular target: D3 receptor (UniProt P19020); type: binding; conditions: read-out: Ki (nM) D3, [3H]spiroperidol; cloned D3 in HEK-293 cells; mean ± SEM of 3-6 experiments

T1 sequence (P05067 672-713 limits assumed): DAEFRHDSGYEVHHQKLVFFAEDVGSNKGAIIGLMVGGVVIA
T2 sequence (P05067 672-713 limits assumed): as above
Chain of D2L receptor (P61169 whole entry): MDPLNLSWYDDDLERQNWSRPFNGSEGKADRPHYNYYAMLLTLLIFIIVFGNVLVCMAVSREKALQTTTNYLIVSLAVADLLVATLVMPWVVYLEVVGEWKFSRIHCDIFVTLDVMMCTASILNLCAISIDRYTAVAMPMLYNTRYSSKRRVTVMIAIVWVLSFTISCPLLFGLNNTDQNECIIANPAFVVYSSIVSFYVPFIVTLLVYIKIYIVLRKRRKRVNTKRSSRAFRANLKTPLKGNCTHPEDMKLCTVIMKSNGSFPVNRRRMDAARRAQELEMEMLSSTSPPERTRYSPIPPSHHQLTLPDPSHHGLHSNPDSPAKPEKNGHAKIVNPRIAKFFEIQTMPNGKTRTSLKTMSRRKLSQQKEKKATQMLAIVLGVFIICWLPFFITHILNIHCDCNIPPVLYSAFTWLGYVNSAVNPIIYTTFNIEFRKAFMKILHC

| Compound | Inhibition of aggregation of Aβ1-42 peptide [1] | Disaggregation of preformed Aβ1-42 aggregates [2] | Inhibition of aggregation of aSN protein (overall conclusion) [3] | Ki [4] | Ki [5] |
| --- | --- | --- | --- | --- | --- |
| 4′-[4-(2-Diisopropylamino-ethyl)-piperazin-1-yl]-biphenyl-3,4-diol [Compound D-687] | potently inhibited aggregation | disaggregate | potently inhibited aggregation |  |  |
| CCCN(CCc1cc(O)c(CCN(CCC)[C@H]2CCc3nc(N)sc3C2)cc1O)[C@H]1CCc2nc(N)sc2C1 [12 (D-673), 2,5-bis(2-(((S)-2-amino-4,5,6,7-tetrahydrobenzo[d]thiazol-6-yl)(propyl)amino)-ethyl)benzene-1,4-diol] |  |  |  | 54.7 ± 3.3 nM | 6.87 ± 0.11 nM |
| CCN(CC)CCN1CCN(c2ccc(-c3ccc(O)c(O)c3)cc2)CC1 [Compound D690, 4′-[4-(2-Diethylamino-ethyl)-piperazin-1-yl]-biphenyl-3,4-diol] | potently inhibited aggregation | disaggregate | potently inhibited aggregation |  |  |
